Results as given in patent US20240415923A1, “RNA-Dependent RNA Polymerase Inhibitory Compounds, Uses in Managing Viral Infections, and Pharmaceutical Compositions” (priority 2023, published 2024).
Where a name gives a salt, the structure may show the parent alone. Starred links: 1 amine or outer side, 2 acyl side, 3 side chain; linkers in the order of their positions; H or OH if unused. Positions of bridges follow the written chain, without caps; N, C: chain ends. Non-standard residues stand in square brackets, D forms with d. Residues, ends and D or L forms follow the SMILES beside them. *: point of attachment. hTyr(3S-OH,4S-OH,3'-OSO3H) = N[C@H](C(=O)O)[C@H](O)[C@@H](O)c1ccc(O)c(OS(=O)(=O)O)c1; Orn(4R-OH,5R-OH) = O=C([C@H](C[C@@H](O)[C@@H](O)N[*:3])N[*:1])[*:2]; Pro(3S-OH,4S-Me) = C[C@H]1CN[C@H](C(=O)O)[C@H]1O; X1 = CCCCCOc1ccc(-c2cc(-c3ccc(C(=O)*)cc3)no2)cc1; Gln(3R-OH) = NC(=O)C[C@@H](O)[C@H](N)C(=O)O; Hyp = O=C(O)[C@@H]1C[C@@H](O)CN1

Legend:
RSV polymerase (L-P) [1] = target: T1, RSV polymerase (L-P) (Human respiratory syncytial virus A, UniProt P28887); assay: in vitro de novo RNA synthesis assay, TrC12 template; assay type: biochemical
RSV polymerase (L-P) [2] = target: T1, RSV polymerase (L-P); assay: in vitro primer-based RNA synthesis assay, TrC12 template and Tr4 primer; assay type: biochemical; conditions: 1 mM, TrC12 template, FIG. 3B
[3] = target: T2, SARS-COV2 polymerase (Nsp7-Nsp8-Nsp12) (Severe acute respiratory syndrome coronavirus 2, UniProt P0DTD1); assay type: biochemical, severe acute respiratory syndrome coronavirus 2 (SARS-COV2); conditions: 1 mM
T2 construct: SARS-COV2 polymerase (Nsp7-Nsp8-Nsp12); made in house

VSBV polymerase (L-P) = assay type: biochemical, variegated squirrel bornavirus (VSBV); conditions: 1 mM
[4] = target: VSV polymerase (L-P1-106) (Vesicular stomatitis Indiana virus, UniProt P03523); assay type: biochemical; conditions: 1 mM
NiV polymerase (L-P) = NiV polymerase (L-P) (Nipah virus, UniProt Q997F0); assay type: biochemical; conditions: 1 mM

T1 sequence (P03421 whole entry): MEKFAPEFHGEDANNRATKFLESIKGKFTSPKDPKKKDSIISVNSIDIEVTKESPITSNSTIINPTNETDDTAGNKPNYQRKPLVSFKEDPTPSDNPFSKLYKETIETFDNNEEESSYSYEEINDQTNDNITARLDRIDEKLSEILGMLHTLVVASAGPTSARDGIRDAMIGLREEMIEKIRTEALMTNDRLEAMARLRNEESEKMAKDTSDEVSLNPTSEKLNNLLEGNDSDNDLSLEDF
T1 sequence (P28887 whole entry): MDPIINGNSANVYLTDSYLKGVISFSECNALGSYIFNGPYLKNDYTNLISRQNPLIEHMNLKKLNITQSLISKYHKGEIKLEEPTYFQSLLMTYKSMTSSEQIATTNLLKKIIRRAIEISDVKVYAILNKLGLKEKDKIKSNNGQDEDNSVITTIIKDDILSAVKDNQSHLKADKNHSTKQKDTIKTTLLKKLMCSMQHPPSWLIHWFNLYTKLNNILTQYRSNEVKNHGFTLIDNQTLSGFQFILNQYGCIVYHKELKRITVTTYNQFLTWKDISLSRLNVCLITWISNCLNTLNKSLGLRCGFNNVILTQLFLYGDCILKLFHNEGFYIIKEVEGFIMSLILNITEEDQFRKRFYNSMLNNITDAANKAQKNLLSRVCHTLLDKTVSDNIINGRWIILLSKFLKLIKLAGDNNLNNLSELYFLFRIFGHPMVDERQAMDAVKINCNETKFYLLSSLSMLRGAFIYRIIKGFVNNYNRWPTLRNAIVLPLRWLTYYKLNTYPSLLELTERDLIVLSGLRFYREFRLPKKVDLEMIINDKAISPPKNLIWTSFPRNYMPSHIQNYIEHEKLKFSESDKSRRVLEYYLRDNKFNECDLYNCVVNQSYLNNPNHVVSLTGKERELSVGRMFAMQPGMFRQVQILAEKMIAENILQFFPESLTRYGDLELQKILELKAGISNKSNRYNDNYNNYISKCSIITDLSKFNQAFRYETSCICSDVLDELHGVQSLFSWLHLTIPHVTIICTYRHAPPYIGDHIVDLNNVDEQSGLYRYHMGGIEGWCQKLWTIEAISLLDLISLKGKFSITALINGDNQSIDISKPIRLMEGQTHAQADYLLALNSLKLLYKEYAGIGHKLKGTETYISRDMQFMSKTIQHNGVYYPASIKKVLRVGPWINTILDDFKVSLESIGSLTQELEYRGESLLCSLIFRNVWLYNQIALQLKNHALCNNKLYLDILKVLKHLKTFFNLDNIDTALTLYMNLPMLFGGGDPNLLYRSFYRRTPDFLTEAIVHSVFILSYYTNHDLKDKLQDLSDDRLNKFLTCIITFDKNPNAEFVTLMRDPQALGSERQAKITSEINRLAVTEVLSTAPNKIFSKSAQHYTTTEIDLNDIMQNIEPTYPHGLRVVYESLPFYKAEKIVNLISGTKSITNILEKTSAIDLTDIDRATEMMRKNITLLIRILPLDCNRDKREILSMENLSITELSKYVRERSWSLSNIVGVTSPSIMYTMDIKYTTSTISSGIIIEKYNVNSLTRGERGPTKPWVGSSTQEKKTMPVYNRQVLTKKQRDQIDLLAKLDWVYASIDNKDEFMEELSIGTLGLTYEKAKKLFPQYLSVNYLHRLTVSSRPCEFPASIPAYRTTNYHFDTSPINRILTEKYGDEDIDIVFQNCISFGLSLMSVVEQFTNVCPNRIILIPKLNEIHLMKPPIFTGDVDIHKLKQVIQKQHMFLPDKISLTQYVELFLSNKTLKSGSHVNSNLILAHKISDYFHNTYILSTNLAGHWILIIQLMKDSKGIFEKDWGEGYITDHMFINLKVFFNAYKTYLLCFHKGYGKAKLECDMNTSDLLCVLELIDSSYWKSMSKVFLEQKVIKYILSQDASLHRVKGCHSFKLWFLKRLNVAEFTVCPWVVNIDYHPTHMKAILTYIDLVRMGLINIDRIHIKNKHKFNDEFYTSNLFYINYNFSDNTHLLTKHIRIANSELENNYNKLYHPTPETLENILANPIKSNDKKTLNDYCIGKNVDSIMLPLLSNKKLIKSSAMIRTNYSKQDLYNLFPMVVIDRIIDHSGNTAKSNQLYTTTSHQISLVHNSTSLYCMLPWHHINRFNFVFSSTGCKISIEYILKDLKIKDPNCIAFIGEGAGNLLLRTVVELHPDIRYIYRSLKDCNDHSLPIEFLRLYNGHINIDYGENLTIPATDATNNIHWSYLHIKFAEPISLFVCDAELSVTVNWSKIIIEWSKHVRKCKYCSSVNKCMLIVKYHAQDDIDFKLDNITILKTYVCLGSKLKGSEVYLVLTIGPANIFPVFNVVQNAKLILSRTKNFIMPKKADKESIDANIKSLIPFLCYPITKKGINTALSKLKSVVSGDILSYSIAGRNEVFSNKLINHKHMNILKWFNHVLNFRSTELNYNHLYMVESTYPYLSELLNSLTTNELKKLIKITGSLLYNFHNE
Chain of VSV polymerase (L-P1-106) (P03523 whole entry, looked up): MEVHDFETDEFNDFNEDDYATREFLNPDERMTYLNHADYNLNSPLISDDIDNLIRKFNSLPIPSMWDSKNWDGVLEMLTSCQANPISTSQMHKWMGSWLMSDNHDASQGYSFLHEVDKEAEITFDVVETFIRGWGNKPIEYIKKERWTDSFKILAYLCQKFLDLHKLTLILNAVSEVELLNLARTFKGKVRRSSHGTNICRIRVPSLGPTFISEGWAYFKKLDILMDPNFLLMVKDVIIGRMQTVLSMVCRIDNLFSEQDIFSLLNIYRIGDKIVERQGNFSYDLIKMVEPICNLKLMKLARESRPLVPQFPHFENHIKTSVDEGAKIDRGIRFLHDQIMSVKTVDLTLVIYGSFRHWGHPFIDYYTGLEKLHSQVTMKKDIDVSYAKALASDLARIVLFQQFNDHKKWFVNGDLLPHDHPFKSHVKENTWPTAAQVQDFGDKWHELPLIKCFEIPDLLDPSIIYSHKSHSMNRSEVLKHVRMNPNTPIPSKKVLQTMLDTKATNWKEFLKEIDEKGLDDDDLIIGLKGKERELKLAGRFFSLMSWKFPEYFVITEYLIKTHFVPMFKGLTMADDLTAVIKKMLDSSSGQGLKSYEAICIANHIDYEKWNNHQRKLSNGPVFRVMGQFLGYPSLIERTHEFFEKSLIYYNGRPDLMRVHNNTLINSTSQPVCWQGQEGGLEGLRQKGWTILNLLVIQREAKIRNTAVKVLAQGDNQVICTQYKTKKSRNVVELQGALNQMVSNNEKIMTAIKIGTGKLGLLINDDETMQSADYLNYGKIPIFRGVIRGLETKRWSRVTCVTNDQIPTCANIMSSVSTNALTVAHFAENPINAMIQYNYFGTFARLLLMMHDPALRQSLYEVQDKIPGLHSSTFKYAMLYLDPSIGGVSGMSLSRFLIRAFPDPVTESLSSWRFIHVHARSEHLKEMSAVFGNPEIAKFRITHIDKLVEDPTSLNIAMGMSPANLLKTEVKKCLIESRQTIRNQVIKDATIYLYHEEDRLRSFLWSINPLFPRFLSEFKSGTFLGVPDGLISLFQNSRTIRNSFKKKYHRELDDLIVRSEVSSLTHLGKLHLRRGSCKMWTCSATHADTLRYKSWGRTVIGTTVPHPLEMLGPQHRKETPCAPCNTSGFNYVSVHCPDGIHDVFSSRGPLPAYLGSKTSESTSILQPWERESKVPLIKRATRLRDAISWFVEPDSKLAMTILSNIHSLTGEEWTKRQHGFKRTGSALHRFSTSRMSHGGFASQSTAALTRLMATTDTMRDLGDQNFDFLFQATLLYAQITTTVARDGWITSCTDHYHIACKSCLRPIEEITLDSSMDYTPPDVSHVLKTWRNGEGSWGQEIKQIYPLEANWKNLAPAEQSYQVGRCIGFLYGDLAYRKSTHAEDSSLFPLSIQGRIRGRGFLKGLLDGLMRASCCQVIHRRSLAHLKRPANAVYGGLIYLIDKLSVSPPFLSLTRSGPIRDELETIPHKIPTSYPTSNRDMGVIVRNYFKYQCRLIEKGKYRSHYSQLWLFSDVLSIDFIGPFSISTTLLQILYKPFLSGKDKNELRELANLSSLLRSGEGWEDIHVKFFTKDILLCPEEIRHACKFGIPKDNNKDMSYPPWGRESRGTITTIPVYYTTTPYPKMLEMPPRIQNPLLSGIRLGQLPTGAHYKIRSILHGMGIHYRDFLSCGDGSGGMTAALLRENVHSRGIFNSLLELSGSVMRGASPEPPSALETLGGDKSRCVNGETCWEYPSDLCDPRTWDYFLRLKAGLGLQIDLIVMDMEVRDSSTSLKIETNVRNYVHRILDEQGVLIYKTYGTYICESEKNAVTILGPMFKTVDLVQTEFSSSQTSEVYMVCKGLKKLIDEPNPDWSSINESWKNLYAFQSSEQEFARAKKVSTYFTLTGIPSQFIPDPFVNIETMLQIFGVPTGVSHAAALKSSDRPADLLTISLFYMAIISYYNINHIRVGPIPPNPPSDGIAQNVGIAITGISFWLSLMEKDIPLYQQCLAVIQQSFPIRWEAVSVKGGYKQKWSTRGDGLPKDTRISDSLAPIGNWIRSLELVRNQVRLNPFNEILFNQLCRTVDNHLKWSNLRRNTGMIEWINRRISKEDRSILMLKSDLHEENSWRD

Structure (SMILES) | impact on the RSV polymerase activity in time course (RSV polymerase (L-P) [1]; 0, 25 and 50 μM, FIG. 5A) | activity of RSV polymerase in time course at 50 μM (RSV polymerase (L-P) [1]; 50 μM versus 0 and 25 μM, FIG. 5A) | RSV polymerase activity retained relative to the control group (RSV polymerase (L-P) [1]; 1 mM small molecule in 10% DMSO, 10% DMSO negative control, FIG. 2) | inhibition of RSV polymerase in the in vitro assay (in words) (RSV polymerase (L-P) [1]; 1 mM, FIG. 2) | de novo RNA synthesis activity of RSV polymerase, rank among the tested molecules (RSV polymerase (L-P) [1]; 1 mM, FIG. 3A, compared with 10 other molecules) | primer-based RNA synthesis activity of RSV polymerase, rank among the tested molecules (RSV polymerase (L-P) [2]) | inhibition of RNA synthesis activity of SARS-COV2 polymerase [3] | inhibition of RNA synthesis activity of VSBV polymerase (VSBV polymerase (L-P)) | inhibition of RNA synthesis activity of VSV polymerase [4] | inhibition of RNA synthesis activity of NiV polymerase (NiV polymerase (L-P))
CCCCCOc1ccc(-c2cc(-c3ccc(C(=O)N[C@H]4C[C@@H](O)[C@@H](O)NC(=O)[C@@H]5[C@@H](O)[C@@H](C)CN5C(=O)[C@H]([C@H](O)CC(N)=O)NC(=O)[C@H]([C@H](O)[C@@H](O)c5ccc(O)c(OS(=O)(=O)O)c5)NC(=O)[C@@H]5C[C@@H](O)CN5C(=O)[C@H]([C@@H](C)O)NC4=O)cc3)no2)cc1 [Micafungin, 5-(2-(20-(3-amino-1-hydroxy-3-oxopropyl)-2,11,12,15-tetrahydroxy-6-(1-hydroxyethyl)-16-methyl-5,8,14,19,22,25-hexaoxo-9-(4-(5-(4-(pentyloxy)phenyl)isoxazol-3-yl)benzamido)tetracosahydro-1H-dipyrrolo[2,1-c: 2′,1′-1][1,4,7,10,13,16]hexaazacyclohenicosin-23-yl)-1,2-dihydroxyethyl)-2-hydroxyphenyl hydrogen sulfate] (X1-[Orn(4R-OH,5R-OH)]T[Hyp][hTyr(3S-OH,4S-OH,3'-OSO3H)][Gln(3R-OH)][Pro(3S-OH,4S-Me)]; lactam 1-C) | time and concentration dependent | lowest at all time points | 29.6% | significant inhibitory activity | lowest | best inhibitors | inhibit | inhibit | inhibit | inhibit
CN1C(N)=NC(C)(c2cc(NC(=O)c3ccc(F)cn3)ccc2F)CS1(=O)=O (stereo not drawn) [Verubecestat, N-(3-(3-amino-2,5-dimethyl-1,1-dioxido-5,6-dihydro-2H-1,2,4-thiadiazin-5-yl)-4-fluorophenyl)-5-fluoropicolinamide] |  |  |  | showed inhibition |  |  |  |  |  | 
Cc1ccc(-n2[nH]c(C)c(N=Nc3cccc(-c4cccc(-c5nnn[nH]5)c4)c3O)c2=O)cc1C [Totrombopag, 2-(3,4-dimethylphenyl)-4-((2-hydroxy-3′-(1H-tetrazol-5-yl)-[1,1′-biphenyl]-3-yl)diazenyl)-5-methyl-1,2-dihydro-3H-pyrazol-3-one] |  |  |  |  |  |  | inhibit | inhibit | inhibit | inhibit
